Experimental data: patent US9216999B2, “Substituted pyrrolo[2,3-h][1,6]naphthyridines and compositions thereof as JAK inhibitors” (priority 2011, dated 2015)

Assays:
JAK3 [1] = target: T1, JAK3 (Homo sapiens (Human), UniProt P52333); experiment: JAK3 enzyme assay (Assay Example^b 1); conditions: IC50 (μM) JAK3, ATP 100 μM
JAK1 [2] = target: T2, JAK1 (Homo sapiens (Human), UniProt P23458); experiment: JAK1 enzyme assay (Assay Example^b 1); conditions: IC50 (μM) JAK1, ATP 100 μM
JAK1 [3] = target: T2, JAK1; experiment: Enzyme assay (Assay Example^a 1), JAK1; format: biochemical; conditions: ATP 100 μM
Tyk2 = Tyk2 (Homo sapiens (Human), UniProt P29597); experiment: Enzyme assay (Assay Example^a 1), Tyk2; format: biochemical; conditions: ATP 100 μM
JAK3 [4] = target: T1, JAK3; experiment: Enzyme assay (Assay Example^a 1), JAK3; format: biochemical; conditions: ATP 100 μM
JAK2 = JAK2 (Homo sapiens (Human), UniProt O60674); experiment: Enzyme assay (Assay Example^a 1), JAK2; format: biochemical; conditions: ATP 100 μM

T1 sequence (P52333 whole entry): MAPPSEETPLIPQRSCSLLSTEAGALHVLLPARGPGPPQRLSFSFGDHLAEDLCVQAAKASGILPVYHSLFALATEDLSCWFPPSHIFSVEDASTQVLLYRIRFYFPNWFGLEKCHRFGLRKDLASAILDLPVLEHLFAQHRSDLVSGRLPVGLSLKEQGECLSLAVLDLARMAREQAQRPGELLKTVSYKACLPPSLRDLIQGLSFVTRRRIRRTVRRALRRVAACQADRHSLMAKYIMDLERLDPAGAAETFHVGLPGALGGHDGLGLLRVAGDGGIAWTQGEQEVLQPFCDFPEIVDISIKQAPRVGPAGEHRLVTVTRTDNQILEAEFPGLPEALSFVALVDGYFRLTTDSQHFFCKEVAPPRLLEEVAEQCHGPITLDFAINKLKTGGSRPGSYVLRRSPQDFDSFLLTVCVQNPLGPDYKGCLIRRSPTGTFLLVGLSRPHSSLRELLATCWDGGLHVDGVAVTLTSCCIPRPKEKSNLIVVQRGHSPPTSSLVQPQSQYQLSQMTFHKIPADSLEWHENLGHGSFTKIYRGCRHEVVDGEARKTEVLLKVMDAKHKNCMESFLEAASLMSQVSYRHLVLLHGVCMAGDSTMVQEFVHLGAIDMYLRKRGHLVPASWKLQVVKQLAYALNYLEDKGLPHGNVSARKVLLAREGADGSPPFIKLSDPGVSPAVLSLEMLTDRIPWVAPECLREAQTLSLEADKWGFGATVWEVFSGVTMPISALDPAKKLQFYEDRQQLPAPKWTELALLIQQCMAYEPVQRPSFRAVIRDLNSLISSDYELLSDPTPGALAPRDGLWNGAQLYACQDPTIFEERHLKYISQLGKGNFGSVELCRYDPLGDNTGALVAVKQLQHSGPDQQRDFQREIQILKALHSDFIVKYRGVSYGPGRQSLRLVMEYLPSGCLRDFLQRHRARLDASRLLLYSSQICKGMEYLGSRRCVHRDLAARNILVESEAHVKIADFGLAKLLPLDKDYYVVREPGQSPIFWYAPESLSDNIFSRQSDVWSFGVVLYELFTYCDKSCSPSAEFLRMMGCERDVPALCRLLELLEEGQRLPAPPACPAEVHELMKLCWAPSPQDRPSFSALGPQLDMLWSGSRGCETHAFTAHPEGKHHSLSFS
Sequence of Tyk2 (P29597 whole entry): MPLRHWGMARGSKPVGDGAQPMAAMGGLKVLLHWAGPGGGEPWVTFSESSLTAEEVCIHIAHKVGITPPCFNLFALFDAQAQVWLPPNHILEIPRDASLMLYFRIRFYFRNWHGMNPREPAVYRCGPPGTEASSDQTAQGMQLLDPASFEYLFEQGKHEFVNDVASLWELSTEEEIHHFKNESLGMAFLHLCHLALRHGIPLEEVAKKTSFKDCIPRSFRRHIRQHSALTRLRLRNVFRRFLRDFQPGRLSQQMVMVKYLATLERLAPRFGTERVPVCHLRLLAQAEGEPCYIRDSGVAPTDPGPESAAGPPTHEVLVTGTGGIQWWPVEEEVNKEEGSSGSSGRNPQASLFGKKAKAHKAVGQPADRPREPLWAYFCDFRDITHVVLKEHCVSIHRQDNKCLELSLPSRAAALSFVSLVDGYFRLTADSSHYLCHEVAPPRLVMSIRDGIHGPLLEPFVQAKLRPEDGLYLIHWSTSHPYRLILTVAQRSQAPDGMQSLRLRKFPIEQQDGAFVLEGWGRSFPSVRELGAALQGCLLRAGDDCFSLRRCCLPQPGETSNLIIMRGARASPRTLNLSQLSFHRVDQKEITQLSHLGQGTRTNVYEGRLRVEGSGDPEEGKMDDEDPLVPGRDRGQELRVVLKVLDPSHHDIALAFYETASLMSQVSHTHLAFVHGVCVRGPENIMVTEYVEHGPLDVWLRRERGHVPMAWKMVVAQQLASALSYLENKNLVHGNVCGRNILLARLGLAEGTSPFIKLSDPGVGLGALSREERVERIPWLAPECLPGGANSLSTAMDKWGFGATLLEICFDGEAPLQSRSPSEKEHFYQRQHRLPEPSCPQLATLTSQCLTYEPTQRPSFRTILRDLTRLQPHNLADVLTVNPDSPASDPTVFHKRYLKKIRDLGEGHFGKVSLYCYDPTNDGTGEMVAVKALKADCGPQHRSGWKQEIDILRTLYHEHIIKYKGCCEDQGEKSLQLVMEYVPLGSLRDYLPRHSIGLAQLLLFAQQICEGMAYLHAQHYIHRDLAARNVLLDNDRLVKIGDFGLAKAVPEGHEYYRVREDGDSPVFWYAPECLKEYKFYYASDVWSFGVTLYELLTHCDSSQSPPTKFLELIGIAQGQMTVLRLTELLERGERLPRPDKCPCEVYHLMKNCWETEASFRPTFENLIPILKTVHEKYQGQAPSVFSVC

| SMILES | IC50 (JAK3 [1]) [µM] | IC50 (JAK1 [2]) [µM] | IC50 (JAK1 [3]) [µM] | IC50 (Tyk2) [µM] | IC50 (JAK3 [4]) [µM] | IC50 (JAK2) [µM] |
| --- | --- | --- | --- | --- | --- | --- |
| O=c1[nH]c(=O)n(C2CCN(CCC3CCOCC3)CC2)c2c1cnc1[nH]ccc12 [compound 93] | > 1 |  |  |  |  |  |
| N#CC=CC1CCC(n2c(=O)[nH]c(=O)c3cnc4[nH]ccc4c32)CC1 (stereo not drawn) [compound 103] | > 1 |  |  |  |  |  |
| O=c1[nH]c(=O)n([C@H]2CC[C@H](CN3CC[C@@H](O)C3)CC2)c2c1cnc1[nH]ccc12 [compound 112] |  | 0.0026 |  |  |  |  |
| O=c1[nH]c(=O)n(C2CCC(CN(CCO)Cc3ccccc3)CC2)c2c1cnc1[nH]ccc12 (stereo not drawn) [compound 121] | > 1 |  |  |  |  |  |
| N#CCC1CN(C[C@H]2CC[C@H](n3c(=O)[nH]c(=O)c4cnc5[nH]ccc5c43)CC2)C1 [compound 124] | > 1 |  |  |  |  |  |
| O=c1[nH]c(=O)n([C@H]2CC[C@H](CNCC3(O)CCCCC3)CC2)c2c1cnc1[nH]ccc12 [compound 126] | > 1 |  |  |  |  |  |
| O=c1c2cnc3[nH]ccc3c2n(C2CCCCC2)c(=O)n1CCN1CCOCC1 [compound 142] | > 1 |  |  |  |  |  |
| CC(CO)(CO)Cn1c(=O)c2cnc3[nH]ccc3c2n(C2CCCCC2)c1=O [compound 151] | > 1 |  |  |  |  |  |
| CN(C)C(=O)Cn1c(=O)c2cnc3[nH]ccc3c2n(C2CCCCC2)c1=O [compound 152] | 0.48 |  |  |  |  |  |
| CN(C)CCn1c(=O)c2cnc3[nH]ccc3c2n(C2CCCCC2)c1=O [compound 153] | > 1 |  |  |  |  |  |
| O=c1c2cnc3[nH]ccc3c2n(C2CCCCC2)c(=O)n1C1CCNCC1 [compound 154] | > 1 |  |  |  |  |  |
| CS(=O)(=O)NC[C@H]1CC[C@H](c2nnn3cnc4[nH]ccc4c23)CC1 [compound 427, N-{[trans-4-(7H-Pyrrolo[3,2-e][1,2,3]triazolo[1,5-c]pyrimidin-1-yl)cyclohexyl]methyl}methanesulfonamide] |  |  | 0.00016 | 0.016 | 0.03 | 0.0012 |
| CC(C)(C)OC(=O)N1CC(CC#N)(NC[C@H]2CC[C@H](c3nnn4cnc5[nH]ccc5c34)CC2)C1 [compound 428, tert-Butyl 3-({[trans-4-(7H-pyrrolo[3,2-e][1,2,3]triazolo[1,5-c]pyrimidin-1-yl)cyclohexyl]methyl}amino)-3-(cyanomethyl)azetidine-1-carboxylate] |  |  | 0.19 | > 1 | > 1 | 0.75 |
| O/N=C/[C@H]1CC[C@H](c2nnn3cnc4[nH]ccc4c23)CC1 [compound 429, 4-(7H-Pyrrolo[3,2-e][1,2,3]triazolo[1,5-c]pyrimidin-1-yl)cyclohexanecarbaldehyde oxime] |  |  | 0.017 | 0.52 | 0.79 | 0.035 |
| N#C[C@H]1CC[C@H](c2nnn3cnc4[nH]ccc4c23)CC1 [compound 430, trans-4-(7H-Pyrrolo[3,2-e][1,2,3]triazolo[1,5-c]pyrimidin-1-yl)cyclohexanecarbonitrile] |  |  | 0.0086 | 0.41 | > 1 | 0.049 |
| N#CC(C#N)=C[C@H]1CC[C@H](c2nnn3cnc4[nH]ccc4c23)CC1 [compound 431, 2-{[trans-4-(7H-Pyrrolo[3,2-e][1,2,3]triazolo[1,5-c]pyrimidin-1-yl)cyclohexyl]methylene}malononitrile] |  |  | 0.0048 | 0.24 | 0.29 | 0.013 |
| C=C1CCC(c2nnn3cnc4[nH]ccc4c23)CC1 [compound 433, 1-(4-Methylenecyclohexyl)-7H-pyrrolo[3,2-e][1,2,3]triazolo[1,5-c]pyrimidine] |  |  | 0.0081 | 0.12 | 0.71 | 0.027 |
| N#CC=C1CCC(c2nnn3cnc4[nH]ccc4c23)CC1 (stereo not drawn) [compound 434, 2-[4-(7H-pyrrolo[3,2-e][1,2,3]triazolo[1,5-c]pyrimidin-1-yl)cyclohexylidene]acetonitrile] |  |  | 0.0023 | 0.034 | 0.49 | 0.014 |
| CCOC(=O)C=C1CCC(c2nnn3cnc4[nH]ccc4c23)CC1 (stereo not drawn) [compound 436, ethyl 2-[4-(7H-pyrrolo[3,2-e][1,2,3]triazolo[1,5-c]pyrimidin-1-yl)cyclohexylidene]acetate] |  |  | 0.035 | > 1 | > 1 | 0.17 |
| CC(C#N)=C1CCC(c2nnn3cnc4[nH]ccc4c23)CC1 (stereo not drawn) [compound 437, 2-[4-(7H-pyrrolo[3,2-e][1,2,3]triazolo[1,5-c]pyrimidin-1-yl)cyclohexylidene]propanenitrile] |  |  | 0.02 | 0.45 | 0.57 | 0.055 |
| CCOC(=O)CC1CCC(c2nnn3cnc4[nH]ccc4c23)CC1 (stereo not drawn) [compound 438, Ethyl 2-[4-(7H-pyrrolo[3,2-e][1,2,3]triazolo[1,5-c]pyrimidin-1-yl)cyclohexyl]acetate] |  |  | 0.017 | 0.58 | 0.34 | 0.044 |
| N#C/C=C/[C@H]1CC[C@H](c2nnn3cnc4[nH]ccc4c23)CC1 [compound 440, (E)-3-[trans-4-(7H-Pyrrolo[3,2-e][1,2,3]triazolo[1,5-c]pyrimidin-1-yl)cyclohexyl]acrylonitrile] |  |  | 0.0053 | 0.14 | 0.54 | 0.031 |
| N#CC1CC12CCC(c1nnn3cnc4[nH]ccc4c13)CC2 (stereo not drawn) [compound 444, 6-(7H-Pyrrolo[3,2-e][1,2,3]triazolo[1,5-c]pyrimidin-1-yl)spiro[2.5]octane-1-carbonitrile] |  |  | 0.0034 | 0.045 | 0.25 | 0.009 |
| OC12CC3CC(C1)CC(c1nnn4cnc5[nH]ccc5c14)(C3)C2 [compound 445, 3-(7H-Pyrrolo[3,2-e][1,2,3]triazolo[1,5-c]pyrimidin-1-yl)adamantan-1-ol] |  |  | 0.031 | 0.052 | 0.22 | 0.13 |
